Measurements reported in patent US6355677B1, “Adrenoleukodystrophy treatments and drug screening” (The Johns Hopkins University, priority 1998, dated 2002).
“Also recorded” adds a separate entry of the source.

Tests used:
[1] = test system: mouse X-ALD primary fibroblasts; assay: VLCFA (C24:0 and C26:0) levels in cultured cells, capillary GC; assay type: cell-based; conditions: 5 mM; for C24:0 Percent Correction / C24:0 level, Treated / C26:0 Percent Correction / C26:0 level, Treated: X-ALD mouse primary fibroblasts
Description: (§1) Cell lines derived from X-ALD patients and X-ALD mice were grown in MEM (fibroblasts) or RPMI (lymphoblastoid cells) supplemented with fetal calf serum (10%), penicillin (100 U/ml), streptomycin (100 U/ml) and glutamine (2 mM). […] Cells in the second flask were grown without drug for the same length of time and served as controls. The media were changed every 3-4 days.
(§2) For VLCFA measurements, total lipids were extracted, converted to methyl esters, purified by TLC and subjected to capillary GC analysis as described. Duplicate assays were set up independently and were assayed on different days. C24:0 β-oxidation activity of human and mouse fibroblasts and human lymphoblastoid cells was determined by measuring their capacity to degrade [1-^14C]-C24:0 fatty acid (American Radiolabeled Chemicals, St. Louis, Mo.) to water-soluble products as described. Phytanic acid oxidation was measured as described. Cells were incubated with [2,3-^3H]-phytanic acid for 24 hours, and the release of ^3H-H2O to the aqueous medium was determined (activity in pmol/hr per mg protein).

[2] = test system: human X-ALD primary fibroblasts; assay: as above; assay type: cell-based; conditions: for C24:0 level, Treated / C26:0 Percent Correction / C26:0 level, Treated / C24:0 Percent Correction: X-ALD human primary fibroblasts
Description: as §1, §2

[3] = test system: human X-ALD lymphoblastoid cells; assay: as above; assay type: cell-based
Description: as §1, §2

[4] = test system: X-ALD human primary fibroblasts; assay: C24:0 β-oxidation ([1-14C]-C24:0 degradation); assay type: cell-based; conditions: 5 mM 4PBA for 6 days
Description: as §1, §2

[5] = test system: X-ALD mouse primary fibroblasts; assay: C24:0 β-oxidation ([1-14C]-C24:0 degradation); assay type: cell-based; conditions: 5 mM 4PBA for 6 days
Description: as §1, §2

[6] = test system: X-ALD human lymphoblastoid cells; assay: C24:0 β-oxidation ([1-14C]-C24:0 degradation); assay type: cell-based; conditions: 5 mM 4PBA for 6 days
Description: as §1, §2

ΔF508-CFTR = conditions: nasal epithelia cells, homozygous or heterozygous ΔF508-CFTR; cited from earlier work
Pex11α = assay: Semi-quantitative RT-PCR, human primary fibroblasts; assay type: cell-based; conditions: 5 mM, 2 days
Description: (§3) Total RNA from tissue culture cells (10^6-10^7 cells/sample) was isolated using TRizol Reagent™ (Life Technologies), treated with DNase I (100-200 units in 40 mM HC, 10mM NaC, 6 mM MgCl2, pH 7.3), incubated at 37° C. for 30 min, extracted with pheno/chloroform, and precipitated with isopropanol. cDNA was generated using MMLV reverse transcriptase (RT) (Life Technologies). PCR was done in the linear range of amplification (determined for each primerpair-cDNA combination). For each cDNA sample, a ‘cocktail’ was prepared, containing PCR buffer (Promega), 200 µM of each DNTP, 1.5 mM MgCl2, 250 ng cDNA, 0.25 U of Taq polymerase (Promega) and […]. The ‘cocktail’ was divided into separate tubes containing cDNA specific primers.
(§4) The PCR primers used are listed below. In the parentheses, h indicates human and m, mouse; this is followed by the gene name, product size and annealing temperature. For primer sequences, F is forward and R is reverse. […]

PPARα = assay: as above; assay type: cell-based; conditions: human X-ALD fibroblasts, 5 mM, up to 10 days
Description: as §3, §4

[7] = between 1 mM and 5 mM, data not shown
[8] = X-ALD human lymphoblastoid cells, 5 mM, exposure 6 days
[9] = X-ALD human lymphoblastoid cells, 5 mM, exposure 10 days

## O=C(O)CCCc1ccccc1 [4-PBA, 4-Phenyl butyrate]
[1]; mouse fibroblasts
  Time of treatment until C24:0 and C26:0 levels were normalized: ≤ 10 days
[1]; exposure 5 days
  C24:0 Percent Correction: 115%
  C24:0 level, Treated: 1.10 ± 0.15% of total fatty acids
  C26:0 Percent Correction: 92%
  C26:0 level, Treated: 0.07 ± 0.03% of total fatty acids
[1]; exposure 9 days
  C24:0 Percent Correction: 152%
  C24:0 level, Treated: 0.87 ± 0.04% of total fatty acids
  C26:0 Percent Correction: 100%
  C26:0 level, Treated: 0.05 ± 0.01% of total fatty acids
[2]; 5 mM, human X-ALD fibroblasts
  Time of treatment until C24:0 levels were normalized: ≤ 10 days
[2]; 5 mM, exposure 1 day
  C24:0 level, Treated: 2.65 ± 0.36% of total fatty acids
  C26:0 Percent Correction: 2%
  C26:0 level, Treated: 0.51 ± 0.14% of total fatty acids
[2]; 5 mM, exposure 1 day, untreated X-ALD 0%, normal 100%
  C24:0 Percent Correction: −1%
[2]; 5 mM, exposure 6 days
  C24:0 Percent Correction: 81%
  C24:0 level, Treated: 1.82 ± 0.28% of total fatty acids
  C26:0 Percent Correction: 26%
  C26:0 level, Treated: 0.41 ± 0.04% of total fatty acids
[2]; 5 mM, exposure 12 days
  C24:0 Percent Correction: 155%
  C24:0 level, Treated: 1.43 ± 0.34% of total fatty acids
  C26:0 Percent Correction: 33%
  C26:0 level, Treated: 0.31 ± 0.06% of total fatty acids
[2]; 5 mM, exposure 16 days
  C24:0 Percent Correction: 96%
  C24:0 level, Treated: 1.69 ± 0.27% of total fatty acids
  C26:0 Percent Correction: 38%
  C26:0 level, Treated: 0.28 ± 0.03% of total fatty acids
[2]; 5 mM, exposure 22 days
  C24:0 Percent Correction: 128%
  C24:0 level, Treated: 1.52 ± 0.14% of total fatty acids
  C26:0 Percent Correction: 47%
  C26:0 level, Treated: 0.27 ± 0.04% of total fatty acids
[2]; [7]
  Effect on VLCFA levels over concentration range: dose-dependent decrease
[3]; 5 mM, human lymphoblastoid cells
  Time of treatment until C24:0 and C26:0 levels were normalized: ≤ 10 days
[3]; [8]
  C24:0 level, Treated: 0.65 ± 0.17% of total fatty acids
  C26:0 Percent Correction: 71%
  C26:0 level, Treated: 0.11 ± 0.05% of total fatty acids
[3]; [9]
  C24:0 Percent Correction: 161%
  C24:0 level, Treated: 0.54 ± 0.16% of total fatty acids
  C26:0 Percent Correction: 90%
  C26:0 level, Treated: 0.09 ± 0.05% of total fatty acids
[3]; [7]
  Effect on VLCFA levels over concentration range: dose-dependent decrease
[4]
  C24:0 β-oxidation, Increase (treated over untreated): twofold to threefold
  C24:0 β-oxidation, Treated (mean specific activity): 0.39 ± 0.07 nmol/hr per mg protein
[5]
  C24:0 β-oxidation, Increase (treated over untreated): twofold to threefold
  C24:0 β-oxidation, Treated (mean specific activity): 0.28 ± 0.03 nmol/hr per mg protein
[6]
  C24:0 β-oxidation, Increase (treated over untreated): twofold to threefold
  C24:0 β-oxidation, Treated (mean specific activity): 0.18 ± 0.03 nmol/hr per mg protein
ΔF508-CFTR
  Effect on ΔF508-CFTR: rescue of ΔF508-CFTR from premature degradation
Pex11α
  Pex11α expression: substantially increased; also recorded: substantial increase
PPARα
  PPARα expression: unchanged
